According to patent US5691373A, “Nonpeptide endothelin antagonists I” (Warner-Lambert Company, priority 1995, dated 1997):
Where a name gives a salt, the structure may show the parent alone. Read-outs that look alike come from different tables or passages of the source.

Legend:
ETA [1] = target: T1, ETA (Oryctolagus cuniculus, UniProt A5A8K3); settings: ERBA-A IC50, [125I]-ET-1, rabbit renal artery vascular smooth muscle cells
T1 sequence (A5A8K3 21-427): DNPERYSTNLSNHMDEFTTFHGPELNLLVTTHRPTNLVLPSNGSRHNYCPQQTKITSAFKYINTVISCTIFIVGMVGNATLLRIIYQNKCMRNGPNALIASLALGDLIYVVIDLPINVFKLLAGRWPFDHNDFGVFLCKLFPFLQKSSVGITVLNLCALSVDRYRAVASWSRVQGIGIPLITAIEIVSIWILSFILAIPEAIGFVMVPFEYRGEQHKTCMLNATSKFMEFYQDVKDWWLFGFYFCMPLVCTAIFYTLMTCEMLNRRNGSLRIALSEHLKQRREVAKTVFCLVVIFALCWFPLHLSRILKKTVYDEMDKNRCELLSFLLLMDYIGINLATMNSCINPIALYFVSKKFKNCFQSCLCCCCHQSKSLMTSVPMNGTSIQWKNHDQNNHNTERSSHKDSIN

ETB = target: T2, ETB (Rattus norvegicus, UniProt P21451)
T2 sequence (P21451 27-442): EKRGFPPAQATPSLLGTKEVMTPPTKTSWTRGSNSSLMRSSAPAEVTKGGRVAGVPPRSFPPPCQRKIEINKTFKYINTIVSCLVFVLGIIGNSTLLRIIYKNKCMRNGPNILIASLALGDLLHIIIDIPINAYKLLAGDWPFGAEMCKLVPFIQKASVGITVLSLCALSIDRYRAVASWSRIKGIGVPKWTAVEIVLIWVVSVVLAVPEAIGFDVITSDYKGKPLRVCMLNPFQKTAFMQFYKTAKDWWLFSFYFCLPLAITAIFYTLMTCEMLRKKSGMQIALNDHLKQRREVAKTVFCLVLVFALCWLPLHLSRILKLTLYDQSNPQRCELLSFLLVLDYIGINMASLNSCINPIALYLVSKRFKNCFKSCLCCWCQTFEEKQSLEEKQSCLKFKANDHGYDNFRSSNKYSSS
Method: The tissue is made up of 20 mM tris(hydroxymethyl)aminomethane hydrochloride (Trizma) buffer, 2 mM ethylenediaminetetra acetate, 100 μM phenylmethylsulfonyl fluoride.
First, thaw one aliquot of frozen rat cerebellar membranes (2 mg protein in 0.5 mL). Next, add 0.5 mL membrane aliquot to 4.5 mL cold tissue buffer, polytron at 7,500 revolutions per minute for 10 seconds. Finally, dilute tissue suspension 1/100 (0.1 mL suspension+9.9 mL tissue buffer), polytron again, and place ice.
Mix in 150 μL of tissue to each tube, vortex briefly, then tap to force all liquids to bottom (total assay volume=250 μL). Then place the tubes in a 37° C. water bath for 2 hours.
Add 2.5 mL cold wash buffer (50 mM Trizma buffer) to each tube, filter, and then wash tube with additional 2.5 mL wash buffer and add to filter. Finally, wash filters with an additional 2.5 mL of cold wash buffer.
Count filters for radioactivity in gamma counter.

ETA [2] = target: T1, ETA
human ETB receptor = target: T3, human ETB receptor (Homo sapiens, UniProt P24530); assay: ERBA-B: [125I]-ET-1 binding, recombinant human ETB receptor expressed in CHO-K1 cells; settings: human cloned ETB receptor, read-out: ERBA-B IC50, human cloned receptor data
T3 construct: expressed in transfected cells; host or cells: CHO-K1 cells, pRc-CMW (so in the source) expression vector, electroporation; membranes used
T3 sequence (P24530 27-442): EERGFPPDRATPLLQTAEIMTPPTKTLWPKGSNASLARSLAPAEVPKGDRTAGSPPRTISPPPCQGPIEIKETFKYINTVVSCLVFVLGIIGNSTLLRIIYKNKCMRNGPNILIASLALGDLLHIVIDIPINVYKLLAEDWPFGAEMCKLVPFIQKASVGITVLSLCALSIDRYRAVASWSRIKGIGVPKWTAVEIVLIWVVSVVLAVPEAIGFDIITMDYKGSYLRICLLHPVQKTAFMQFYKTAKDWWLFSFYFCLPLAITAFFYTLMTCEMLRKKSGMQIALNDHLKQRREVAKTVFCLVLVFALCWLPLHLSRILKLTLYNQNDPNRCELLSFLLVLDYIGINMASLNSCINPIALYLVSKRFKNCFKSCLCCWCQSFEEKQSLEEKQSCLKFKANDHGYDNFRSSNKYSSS

ETA [3] = target: T1, ETA; assay: VERA-A: antagonism of ET-1 stimulated vasoconstriction in the rabbit femoral artery (ETA); format: cell-based; settings: ET-1, rabbit femoral artery; read-out: VERA-A pA2 (converted)
Method: Male New Zealand rabbits were killed by cervical dislocation and exsanguination. Femoral and pulmonary arteries were isolated, cleaned of connective tissue, and cut into 4-mm rings. The endothelium was denuded by placing the rings over hypodermic tubing (32 gauge for femoral rings and 28 gauge for pulmonary rings, Small Parts, Inc, Miami, Fla.) and gently rolling them. […] Resting tension was adjusted to 3.0 g for femoral and 4.0 g pulmonary arteries; the rings were left for 90 minutes to equilibrate.

Row | Compound | IC50 (ETA [1]) [nM] | IC50 (ETB) [nM] | IC50 (ETA [2]) [nM] | IC50 (human ETB receptor) [nM] | Kb (ETA [3]) [nM]
1 | COc1ccc(C2(O)OC(=O)C(c3ccc4c(c3)OCO4)=C2Cc2cccc(Cl)c2)cc1 (stereo not shown) [Example 75, 3-Benzo[1,3]dioxol-5-yl-4-(3-chlorobenzyl)-5-hydroxy-5-(4-methoxyphenyl)-5H -furan-2-one] | 16 | 1200 | 71 | – | –
2 | COc1ccc(C2(O)OC(=O)C(c3ccc4c(c3)OCO4)=C2Cc2ccc(C)cc2)cc1 (stereo not shown) [Example 76] | 50 | 390 | 520 | – | –
3 | COc1ccc(C2(O)OC(=O)C(c3ccc4c(c3)OCO4)=C2Cc2cccc(C)c2)cc1 (stereo not shown) [Example 90, 3-Benzo[1,3]dioxol-5-yl-5-hydroxy-5-(4-methoxyphenyl)-4-(3-methylbenzyl)-5H -furan-2-one] | 20 | – | 88 | 3500 | –
4 | COc1ccc(C2(O)OC(=O)C(c3cc(OC)cc(OC)c3)=C2Cc2cccnc2)cc1 (stereo not shown) [Example 133, 3-(3,5-Dimethoxyphenyl)-5-hydroxy-5-(4-methoxyphenyl)-4-pyridin-3methyl-5H-furan-2-one] | 30 | – | 76 | 6800 | –
5 | C=CCOc1cc(CC2=C(c3cc(OC)cc(OC)c3)C(=O)OC2(O)c2ccc(OC)cc2)ccc1OC (stereo not shown) [Example 135, 4-(3-Allyloxy-4-methoxybenzyl)-3-(3,5-dimethoxyphenyl)-5-hydroxy-5-(4-methoxyphenyl)-5H-furan-2-one] | 9 | 330 | – | – | 126
6 | COc1ccc(C2(O)OC(=O)C(c3ccc4c(c3)OCO4)=C2Cc2cccnc2)cc1 (stereo not shown) [Example 160, 3-Benzo[1,3]dioxol-5-yl-5-hydroxy-5-(4-methoxyphenyl)-4-pyridin-3-ylmethyl-5H-furan-2-one] | 350 | – | 55 | – | –
7 | COC(=O)c1ccc(CC2=C(c3ccc4c(c3)OCO4)C(=O)OC2(O)c2ccc(OC)cc2)cc1 (stereo not shown) [Example 182, 4-[4-Benzo[1,3]dioxol-5-yl-2-hydroxy-2-(4-methoxyphenyl)-5-oxo-2,5-dihydrof uran-3-ylmethyl]benzoic acid methyl ester] | 16 | – | 50 | 2000 | –
8 | COc1ccc(C2(O)OC(=O)C(c3ccc4c(c3)OCO4)=C2Cc2ccccc2)cc1OC (stereo not shown) [Example 190, 3-Benzo[1,3]dioxol-5-yl-4-benzyl-5-(3,4-dimethoxyphenyl)-5-hydroxy-5H-furan-2-one] | 65 | 750 | 780 | – | –
9 | COc1ccc(C2(O)OC(=O)C(c3ccc4c(c3)OCO4)=C2Cc2ccc(S(C)(=O)=O)cc2)cc1 (stereo not shown) [Example 237, 3-Benzo[1,3]dioxol-5-yl-5-hydroxy-4-(4-methanesulfonylbenzyl)-5-(4-methoxyphenyl)-5H-furan-2-one] | 11 | – | – | > 2500 | 631
10 | COc1ccc(C2(O)OC(=O)C(c3ccc4c(c3)OCO4)=C2Cc2ccc(OC)c(C)c2C)cc1 (stereo not shown) [Example 254, 3-Benzo[1,3]dioxol-5-yl-5-hydroxy-4-(4-methoxy-2,3-dimethylbenzyl)-5-(4-methoxyphenyl)-5H-furan-2-one] | 17 | – | – | 2900 | 200
11 | COc1ccc(C2(O)OC(=O)C(c3ccc4c(c3)OCO4)=C2Cc2cc(OC)c(OC)c(OC)c2)cc1 (stereo not shown) [Example 281, 3-benzo[1,3]dioxol-5-yl-5-hydroxy-5-(4-methoxyphenyl)-4-(3,4,5-trimethoxybenzyl)-5H-furan-2-one] | 0.6 | – | 7700 | – | –
12 | COc1ccc(C2(O)OC(=O)C(c3cc(OC)c4c(c3)OCO4)=C2Cc2ccccc2)cc1 (stereo not shown) [Example 301, 4-Benzyl-5-hydroxy-3-(7-methoxy-benzo[1,3]dioxol-5-yl)-5(4-methoxy-phenyl)-5H-furan-2-one] | 5.6 | – | – | 660 | 100
13 | COc1ccc(C(=O)/C(Cc2ccccc2)=C(\C(=O)O)c2ccc3c(c2)OCO3)cc1 [Example 351, Sodium 2-benzo[1,3]dioxol-5-yl-3-benzyl-4-(4-methoxyphenyl)-4-oxobut-2-enoate] | 16 | – | – | > 250 | 631
14 | COc1ccc(C(=O)/C(Cc2ccc(OC(C)C)cc2)=C(\C(=O)O)c2ccc3c(c2)OCO3)cc1 [Example 352, 1,3-Benzodioxol-5-acetic acid, α-[2-(4-methoxyphenyl)-1-[[4-(1-methylethoxy)phenyl]methyl]-2-oxoethylene]-, (Z)-, choline salt] | 5 | – | – | 1250 | 63.1
15 | COc1ccc(C2(O)OC(=O)C(c3cc(OC)c4c(c3)OCO4)=C2Cc2cc(OC)c(OC)c(OC)c2)cc1 (stereo not shown) [Example 356, 5-Hydroxy-3-(7-methoxy-benzo[1,3]dioxol-5-yl)-5-(4-methoxy-phenyl)-4-(3,4,5-trimethoxy-benzyl)-5H-furan-2-one] | 0.25 | – | – | 340 | 20
16 | COc1ccc(C2(O)OC(=O)C(c3cc(OC)c4c(c3)OCO4)=C2Cc2ccccc2)cc1C (stereo not shown) [Example 360, 4-Benzyl-5-hydroxy-3-(7-methoxy-benzo[1,3]dioxol-5-yl)-5-(4-methoxy-3-methyl-phenyl)-5H-furan-2-one] | 9.9 | – | – | 1350 | 100
17 | COc1ccc(C2(O)OC(=O)C(c3cc(OC)c4c(c3)OCO4)=C2Cc2cc(OC)c(OC)c(OC)c2)cc1C (stereo not shown) [Example 361, 5-Hydroxy-3-(7-methoxy-benzo[1,3]dioxol-5-yl)-5-(4-methoxy-3-methyl-phenyl) -4-(3,4,5-trimethoxy-benzyl)-5H-furan-2-one] | 2 | – | – | 220 | 39.8
18 | COc1cc(OC)cc(C2=C(Cc3cc(OC)c(OC)c(OC)c3)C(O)(c3ccc(OC)c(C)c3)OC2=O)c1 (stereo not shown) [Example 382, 3-(3,5-Dimethoxy-phenyl)-5-hydroxy-5-(4-methoxy-3-methyl-phenyl)-4-(3,4,5-trimethoxy-benzyl)-5H-furan-2-one] | 0.9 | – | – | > 250 | 158
19 | COc1ccc(C2(O)OC(=O)C(c3ccc4c(c3)OCO4)=C2Cc2cc(OC)c(OC)c(OC)c2)cc1C (stereo not shown) [Example 383, 3-Benzo[1,3]dioxol-5-yl-5-hydroxy-5-(4-methoxy-3-methyl-phenyl)-4-(3,4,5-trimethoxy-benzyl)-5H-furan-2-one] | 0.5 | – | 7400 | 290 | –
20 | COc1cc(OC)cc(/C(C(=O)O)=C(\Cc2ccc(NC(C)=O)cc2)C(=O)c2ccc(OC)c(C)c2)c1 [Example 386, Potassium 3-(4-Acetylamino-benzyl)-2-(3,5-dimethoxyphenyl)-4-(4-methoxy-3-methyl-phenyl)-4-oxo-but-2-enoate] | 5 | – | – | 2100 | 126
21 | COc1ccc(C2(O)OC(=O)C(c3cc(OC)cc(OC)c3)=C2Cc2ccc(OC(C)C)c(OC)c2)cc1 (stereo not shown) [Example 389, 3-(3,5-Dimethoxy-phenyl)-5-hydroxy-4-(4-isopropoxy-3-methoxy-benzyl)-5-(4-methoxy-phenyl)-5H-furan-2-one] | 3.6 | – | 2.4 | 1100 | –
22 | COC(=O)c1cccc(C/C(C(=O)c2ccc(OC)cc2)=C(/C(=O)O)c2ccc3c(c2)OCO3)c1 [Example 405, 1,3-Benzodioxol-5-acetic acid, α-[1-[[3-(methoxycarbonyl)phenyl]methyl]-2-(4-methoxyphenyl)-2-oxoethylene]-, monopotassium salt] | 7.4 | – | – | 2700 | 251
